Read-outs that look alike come from different tables or passages of the source.
Columns and labels:
[1] = test system: TA98, TA1535, TA1537, TA1538, TA100 and W2P2uvr; assay: Ames Test (in the presence of S9); format: cell-based, Salmonella typhimurium
Text: Six Salmonella typhimuriumstrai strains, TA98, TA1535, TA1537, TA1538, TA100 and W2P2uvr were used in this experiment.

LD50, intravenous, mice = format: in vivo; conditions: mouse, in vivo, female mice, mortalities within 1 week
Method: The test material was administered intravenously to 5 female mice in five increasing doses. Mortalities were recorded within 1 week, and the LD50 was determined with the aid of statistical calculations.

HIV-1 patient isolate IH = assay: Inhibition of HIV-1 patient isolate IH in PBMCs; format: cell-based; conditions: Human immunodeficiency virus 1, PBMC, 288 h, read-out: % Inhibition (after day 12); for inhibition at 2.5 µg/mL: 2.5 μg/ml; for inhibition at 5 µg/mL: 5 μg/ml; for inhibition at 10 µg/mL: 10 μg/ml; for inhibition at 20 µg/mL: 20 μg/ml
Method: The inhibitory effects of additional naphthalenesulfonic acid compounds were tested as follows: Experimental Details:
PBMCs were activated for 48 hours in conditioned medium containing PHA at a concentration of 4 μg/ml. […] The test compound, previously dissolved in a glucose solution (1 mg/ml), was then added to each of the wells to achieve the appropriate concentration. The plate was then incubated overnight (about 15 hours) after which 50 μl of cell-free HIV-1 patient isolate was added to each well. The plates were incubated for further 6 to 8 hours after which all free floating solution of virus was washed off. Washing was performed four times.
After removal of the virus, all cultures were resuspended in conditioned medium containing 10% FCS.
For control experiments virus growth was monitored in either 10% FCS or 50% FCS throughout the observation period (15 days).

HIV-1 RF [2] = assay: Antiviral assay, Experimental Protocol I (compound added after infection); format: cell-based; conditions: Human immunodeficiency virus 1, 240 h, p24 ELISA, read-out: % Inhibition (after day 10); for inhibition at 0.6 µg/mL: 0.6 μg/ml; for inhibition at 1.25 µg/mL: 1.25 μg/ml; for inhibition at 2.5 µg/mL: 2.5 μg/ml; for inhibition at 5 µg/mL: 5 μg/ml; for inhibition at 0.3 µg/mL: 0.3 μg/ml
Method: HIV-1 infectivity studies were conducted in CEM, H9, MT2 cells and peripheral blood mononuclear cells (PBMC). CEM, H9 and MT2 were grown in RPMI1640 medium, 10% heat-inactivated fetal bovine serum (FBS). PBMCs were stimulated with 4 μg/ml PHA for 48 hours in RPMI1640, 10% FBS before HIV-1 infection. After HIV-1 infection, PBMCs were maintained in RPMI 1640, 10% FBS and 10 10 units/ml IL-2. The major HIV-1 isolates used were MN, IIIB, SF2, AZT-sensitive A018 and AZT-resistant A018 provided by NIH AIDS research and reference reagent program. Two major antiviral assays were developed to determine the antiviral activities of the compounds of this invention (as inhibitors).
I. The cells were infected with HIV-1 RF or IIIB at an infectivity multiplicity (moi) of 0.001 in the absence of a compound of this invention for one hour. HIV-1 infected cells were washed once with PBS, resuspended in RPMI1640, 10% FBS medium and distributed in 24-well culture dishes (5×10^5 cells per well) in the presence of a compound of this invention as inhibitor. […]

[3] = target: T1, recombinant reverse transcriptase (RT) (Human immunodeficiency virus type 1 group M subtype B, UniProt P04585); assay: Reverse transcriptase inhibition assay; format: biochemical, HIV-1
T1 construct: purchased Worthington Biochemical Corporation
Method: Inhibition of recombinant reverse transcriptase (RT) was performed by using commercially available Boehringer Mannheim RT assay kit (Cat. No. 1468 120) based on incorporation of digoxigenin labeled dUTP into DNA. Recombinant enzyme from HIV-1 was purchased from Worthington Biochemical Corporation. The level of anti-RT activity in the sample was determined by measurement of absorbance using an ELISA reader at 405 nm.

HIV-1 RF [4] = assay: Antiviral assay, Experimental Protocol II (virus incubated with compound before cells); format: cell-based; conditions: Human immunodeficiency virus 1, 240 h, 10% FCS, p24 ELISA, read-out: % Inhibition (after day 10)
[5] = the higher the value, the higher the mutagenicity

SMILES	Ames Test result [1]	LD50 at 168 h (LD50, intravenous, mice) [mg/kg]	inhibition at 5 µg/mL (HIV-1 patient isolate IH; 10% FCS) [%]	inhibition at 10 µg/mL (HIV-1 patient isolate IH; 10% FCS) [%]	inhibition at 20 µg/mL (HIV-1 patient isolate IH; 10% FCS) [%]	inhibition at 0.6 µg/mL (HIV-1 RF [2]; 10% FCS) [%]	inhibition at 1.25 µg/mL (HIV-1 RF [2]; 10% FCS) [%]	inhibition at 2.5 µg/mL (HIV-1 RF [2]; 10% FCS) [%]	inhibition at 5 µg/mL (HIV-1 RF [2]; 10% FCS) [%]	inhibition at 0.5 µM [3] [%]	further results
COc1cc(N=Nc2c(S(=O)(=O)O)cc3cc(S(=O)(=O)O)cc(NC(=O)c4cccc(Cl)c4Cl)c3c2O)c(OC)cc1N=Nc1c(S(=O)(=O)O)cc2cc(S(=O)(=O)O)cc(NC(=O)c3ccccc3Cl)c2c1O [Compound 21]	Negative	160	23	77	100	–	–	–	–	–	inhibition at 2.5 µg/mL (HIV-1 patient isolate IH; 10% FCS): 0%; inhibition at 2.5 µg/mL (HIV-1 patient isolate IH; 50% Human Serum): 10%; inhibition at 5 µg/mL (HIV-1 patient isolate IH; 50% Human Serum): 23%; inhibition at 10 µg/mL (HIV-1 patient isolate IH; 50% Human Serum): 61%; inhibition at 20 µg/mL (HIV-1 patient isolate IH; 50% Human Serum): 100%
COc1cc(N=Nc2c(S(=O)(=O)O)cc3cc(S(=O)(=O)O)cc(NC(=O)c4ccccc4)c3c2O)c(OC)cc1N=Nc1c(S(=O)(=O)O)cc2cc(S(=O)(=O)O)cc(NC(C)=O)c2c1O [Compound 5]	Negative	120	45	77	77	45	87	100	100	–	–
CCC(C)(C)c1ccc(OCC(=O)Nc2cc(S(=O)(=O)O)cc3cc(S(=O)(=O)O)c(N=Nc4cc(OC)c(N=Nc5c(S(=O)(=O)O)cc6cc(S(=O)(=O)O)cc(NC(C)=O)c6c5O)cc4OC)c(O)c23)c(C(C)(C)CC)c1 [Compound 3]	Negative	150	–	–	–	–	96	100	100	77	–
COc1cc(N=Nc2c(S(=O)(=O)O)cc3cc(S(=O)(=O)O)cc(NC(=O)c4cc(Cl)ccc4Cl)c3c2O)c(OC)cc1N=Nc1c(S(=O)(=O)O)cc2cc(S(=O)(=O)O)cc(NC(=O)c3cc(Cl)ccc3Cl)c2c1O [Compound 7]	Positive	170	–	–	–	81	99	100	100	41	inhibition at 0.6 µg/mL (HIV-1 RF [2]; 50% Human Serum): 0%; inhibition at 1.25 µg/mL (HIV-1 RF [2]; 50% Human Serum): 0%; inhibition at 2.5 µg/mL (HIV-1 RF [2]; 50% Human Serum): 48%; inhibition at 5 µg/mL (HIV-1 RF [2]; 50% Human Serum): 97%; inhibition at 5 µM [3]: 75%; Ames Test, specific mutagenic activity ([1]; unit as printed for Compound 7): 0.05 colony no/g g
CCC(C)(C)c1ccc(OCC(=O)Nc2cc(S(=O)(=O)O)cc3cc(S(=O)(=O)O)c(N=Nc4cc(OC)c(N=Nc5c(S(=O)(=O)O)cc6cc(S(=O)(=O)O)cc(NC(=O)c7ccc(Cl)cc7Cl)c6c5O)cc4OC)c(O)c23)c(C(C)(C)CC)c1 [Compound 15]	Negative	150	–	–	–	–	–	–	–	–	inhibition at 1.25 µg/mL (HIV-1 RF [4]; 1.25 μg/ml): 61%; inhibition at 2.5 µg/mL (HIV-1 RF [4]; 2.5 μg/ml): 89%; inhibition at 5 µg/mL (HIV-1 RF [4]; 5 μg/ml): 100%
COc1cc(N=Nc2c(S(=O)(=O)O)cc3cc(S(=O)(=O)O)cc(NC(=O)c4cccc5ccccc45)c3c2O)c(OC)cc1N=Nc1ccc2cc(S(=O)(=O)O)cc(NC(=O)c3ccccc3)c2c1O [Compound 13]	Negative	160	55	70	100	–	–	–	–	–	–
COc1cc(N=Nc2c(S(=O)(=O)O)cc3cc(S(=O)(=O)O)cc(NC(=O)c4cccc(Cl)c4Cl)c3c2O)c(OC)cc1N=Nc1c(S(=O)(=O)O)cc2cc(S(=O)(=O)O)cc(NC(=O)COc3ccccc3)c2c1O [Compound 4]	Negative	160	60	88	98	–	–	–	–	–	–
COc1cc(N=Nc2c(S(=O)(=O)O)cc3cc(S(=O)(=O)O)cc(NC(=O)c4ccc(Cl)cc4Cl)c3c2O)c(OC)cc1N=Nc1c(S(=O)(=O)O)cc2cc(S(=O)(=O)O)cc(NC(=O)Cc3ccc(Cl)cc3)c2c1O [Compound 18]	Negative	135	–	–	–	–	–	–	–	–	inhibition at 5 µM [3]: 66%
COc1cc(N=Nc2c(S(=O)(=O)O)cc3cc(S(=O)(=O)O)cc(NC(=O)Nc4cccc5ccccc45)c3c2O)c(OC)cc1N=Nc1c(S(=O)(=O)O)cc2cc(S(=O)(=O)O)cc(NC(C)=O)c2c1O [Compound 16]	Positive	160	–	–	–	–	–	–	–	–	inhibition at 5 µM [3]: 98%; Ames Test, specific mutagenic activity [1, 5]: 0.03 colony no/μg
COc1cc(N=Nc2c(S(=O)(=O)O)cc3cc(S(=O)(=O)O)cc(NC(=O)c4ccc(Cl)cc4Cl)c3c2O)c(OC)cc1N=Nc1c(S(=O)(=O)O)cc2cc(S(=O)(=O)O)cc(NC(=O)c3ccc(Cl)cc3Cl)c2c1O [Compound 11]	Positive	160	0	100	100	100	100	100	100	30	inhibition at 0.3 µg/mL (HIV-1 RF [2]; 10% FCS): 99%; inhibition at 0.6 µg/mL (HIV-1 RF [2]; 50% Human Serum): 55%; inhibition at 1.25 µg/mL (HIV-1 RF [2]; 50% Human Serum): 87%; inhibition at 2.5 µg/mL (HIV-1 RF [2]; 50% Human Serum): 93%; inhibition at 5 µg/mL (HIV-1 RF [2]; 50% Human Serum): 98%; Ames Test, specific mutagenic activity [1, 5]: 0.02 colony no/μg; inhibition at 2.5 µg/mL (HIV-1 patient isolate IH; 10% FCS): 0%; inhibition at 2.5 µg/mL (HIV-1 patient isolate IH; 50% Human Serum): 0%; inhibition at 5 µg/mL (HIV-1 patient isolate IH; 50% Human Serum): 0%; inhibition at 10 µg/mL (HIV-1 patient isolate IH; 50% Human Serum): 31%; inhibition at 20 µg/mL (HIV-1 patient isolate IH; 50% Human Serum): 100%
COc1cc(N=Nc2c(S(=O)(=O)O)cc3cc(S(=O)(=O)O)cc(NC(=O)c4cc(Cl)ccc4Cl)c3c2O)c(OC)cc1N=Nc1c(S(=O)(=O)O)cc2cc(S(=O)(=O)O)cc(NC(=O)c3ccc(Cl)c(Cl)c3)c2c1O [Compound 12]	Negative	190	85	100	100	96	99	100	100	–	inhibition at 0.3 µg/mL (HIV-1 RF [2]; 10% FCS): 86%; inhibition at 0.6 µg/mL (HIV-1 RF [2]; 50% Human Serum): 0%; inhibition at 1.25 µg/mL (HIV-1 RF [2]; 50% Human Serum): 0%; inhibition at 2.5 µg/mL (HIV-1 RF [2]; 50% Human Serum): 40%; inhibition at 5 µg/mL (HIV-1 RF [2]; 50% Human Serum): 93%; inhibition at 2.5 µg/mL (HIV-1 patient isolate IH; 10% FCS): 0%; inhibition at 2.5 µg/mL (HIV-1 patient isolate IH; 50% Human Serum): 0%; inhibition at 5 µg/mL (HIV-1 patient isolate IH; 50% Human Serum): 0%; inhibition at 10 µg/mL (HIV-1 patient isolate IH; 50% Human Serum): 90%; inhibition at 20 µg/mL (HIV-1 patient isolate IH; 50% Human Serum): 93%
COc1cc(N=Nc2c(S(=O)(=O)O)cc3cc(S(=O)(=O)O)cc(NC(=O)c4ccc(Cl)c(Cl)c4)c3c2O)c(OC)cc1N=Nc1c(S(=O)(=O)O)cc2cc(S(=O)(=O)O)cc(NC(=O)c3ccc(Cl)c(Cl)c3)c2c1O [Compound 10]	Negative	140	–	–	–	–	–	–	–	55	–
